Patent publication US9133122B2, “Amide compounds, compositions and uses thereof” (EVOTEC AG, priority 2008, dated 2015)

What was measured:
hP2X2/3H = molecular target: T1, hP2X2/3H (Homo sapiens, UniProt P56373+Q9UBL9); experiment: Calcium uptake assay (Ca influx), P2X antagonist assay, P2X2/3 heteromer; type: cell-based; details: inhibition of agonist-induced calcium influx
T1 construct: expressed in transfected cells
T1 sequence (P56373 1-397): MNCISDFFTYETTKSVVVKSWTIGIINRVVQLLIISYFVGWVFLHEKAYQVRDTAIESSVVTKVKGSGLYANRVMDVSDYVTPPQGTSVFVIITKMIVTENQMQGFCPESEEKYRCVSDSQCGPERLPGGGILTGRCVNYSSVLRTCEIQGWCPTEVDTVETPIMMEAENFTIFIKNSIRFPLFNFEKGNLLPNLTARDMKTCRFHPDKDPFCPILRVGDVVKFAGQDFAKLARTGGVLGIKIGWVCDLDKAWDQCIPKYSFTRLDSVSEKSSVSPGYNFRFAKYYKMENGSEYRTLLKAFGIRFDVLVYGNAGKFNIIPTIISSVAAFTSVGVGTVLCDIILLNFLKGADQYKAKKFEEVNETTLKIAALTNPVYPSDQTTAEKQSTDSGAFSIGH
T1 sequence (Q9UBL9 1-471): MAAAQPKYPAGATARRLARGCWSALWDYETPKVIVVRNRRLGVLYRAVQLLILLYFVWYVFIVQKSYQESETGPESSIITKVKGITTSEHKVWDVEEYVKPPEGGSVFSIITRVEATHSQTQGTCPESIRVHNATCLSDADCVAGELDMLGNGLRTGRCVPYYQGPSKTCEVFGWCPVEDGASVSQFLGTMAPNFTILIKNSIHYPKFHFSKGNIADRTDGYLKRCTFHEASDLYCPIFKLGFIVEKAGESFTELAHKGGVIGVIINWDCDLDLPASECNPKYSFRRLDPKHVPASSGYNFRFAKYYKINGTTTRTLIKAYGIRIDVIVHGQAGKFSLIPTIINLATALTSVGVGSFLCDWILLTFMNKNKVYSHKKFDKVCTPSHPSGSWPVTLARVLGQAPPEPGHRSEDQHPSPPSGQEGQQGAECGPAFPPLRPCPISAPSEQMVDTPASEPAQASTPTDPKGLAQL
From the text: (§1) Human P2X3 (Accession no. NM_002559), P2X2 (Accession no. NM_170682) and Rat P2X3 (Accession no. NM_031075) and P2X2 (Accession no. NM_053656) are cloned into a mammalian expression vector (e.g., pcDNAS/TO or pcDNA3 Invitrogen). The human P2X2/3 chimera clone is created as described by Neelands et al, and then cloned into an expression vector as above. Receptors are expressed in cells (e.g., HEK293 or 1321N1 (obtained from the ECACC)) via transient transfection using standard lipid mediated transfection, or by creation of stable transfectants for each receptor. For expression of the P2X2/3 heteromeric receptor, the P2X3 expression vector is stably transfected into a cell line already stably expressing P2X2. P2X2/3 heteromer function is isolated using pharmacological methods. Cell lines are maintained in DMEM+5% Glutamax, the appropriate level of selective antibiotic, and 10% heat inactivated FBS.
(§2) Functional activity of compounds at the P2X receptor is determined by measuring their ability to inhibit agonist-induced calcium influx. Compounds are tested for antagonist activity against the P2X2/3 chimera, the P2X3 homomer, or the P2X2/3 heteromer. At the start of each screening day, the agonist EC50 is determined. Compound % inhibition or IC50s are subsequently determined using a predetermined agonist concentration (EC50-90 depending on cell line) as a stimulus. The agonists used are αβMeATP, ATP, or other ATP analogs. Compounds may be tested at concentrations ranging from 1 pM to 10 μM.
(§3) To test for antagonist activity, cells expressing the appropriate receptor are seeded onto 96 or 384 well plates 18-24 hours prior to assay. On the day of the assay, cells are loaded with calcium-sensitive fluorescent dye (e.g., Fluo-4 no wash reagent-Invitrogen cat#F36206, or the BD™ PBX Calcium Assay Kit-BD cat #640175) in Hank's Buffered Salt Solution (HBSS) with up to 10 mM supplemental CaCl2. Plates are incubated at 37° C. and then equilibrated at room temperature. Antagonism of agonist-induced calcium influx is measured using a fluorescent imaging plate reader (e.g. FLIPR^TETRA, Molecular Devices, Sunnyvale, Calif.). The assay comprises two stages: a pre-treatment phase followed by a treatment phase. Compounds may be tested as follows: For the pre-treatment phase, 50 μL of 3× concentration of test compound in HBSS is added to cells containing 100 μL of dye loading media to achieve a final concentration of 1× test compound. For the treatment phase, at a set interval after pre-treatment (1-30 minutes), 50 μL of 1× test compound plus 4× agonist solution is added, resulting in a final concentration of 1× compound and 1× agonist. Fluorescence is measured at 0.1-3 second intervals—with an excitation wavelength of 494 nm and an emission wavelength of 515 nm. Responses are measured as (peak fluorescence after agonist addition) minus (baseline fluorescence prior to treatment). Percent inhibition is calculated as follows:
(§4) [formula] IC50 values are determined by analyzing dose response data in a 4 parameter logistic fit using GraphPad Prizm.
(§5) The following compounds have been or can be prepared according to the synthetic methods described herein. A calcium uptake assay was performed as described above and the activity of each compound is expressed as follows: […]

hP2X3 = molecular target: T2, hP2X3 (Homo sapiens, UniProt P56373); experiment: Calcium uptake assay (Ca influx), P2X antagonist assay, P2X3 homomer; type: cell-based; details: inhibition of agonist-induced calcium influx
T2 construct: expressed in transfected cells
T2 sequence (P56373 1-397): T1 sequence (P56373 1-397)
From the text: as §1, §2, §3, §4, §5

For `COc1ccccc1-c1cc(C(=O)NCc2ccc(C)nc2)cc(-c2ccc(C)cn2)c1` [Compound 18, 2′-Methoxy-5-(5-methyl-pyridin-2-yl)-biphenyl-3-carboxylic acid (6-methyl-pyridin-3-ylmethyl)-amide], the IC50 (hP2X2/3H) was 70.9 nM and the IC50 (hP2X3) was 53.5 nM.
`Cc1ccc(-c2cc(C(=O)NCc3ccc(C)nc3)cc(-c3ccncc3)c2)nc1` [Compound 19, 3-(5-Methyl-pyridin-2-yl)-N-(6-methyl-pyridin-3-ylmethyl)-5-pyridin-4-yl-benzamide] showed an IC50 (hP2X2/3H) of 238 nM and an IC50 (hP2X3) of 61.4 nM.
`Cc1ccc(-c2cc(C(=O)NCc3ccc(C)nc3)cc(-c3cccnc3)c2)nc1` [Compound 20, 3-(5-Methyl-pyridin-2-yl)-N-(6-methyl-pyridin-3-ylmethyl)-5-pyridin-3-yl-benzamide] gave an IC50 (hP2X2/3H) of 70.5 nM and an IC50 (hP2X3) of 38.5 nM.
In the case of `Cc1ccc(-c2cc(C(=O)NCc3ccc(C)nc3)cc(-c3ccccc3)c2)nc1` [Compound 21, 5-(5-Methyl-pyridin-2-yl)-biphenyl-3-carboxylic acid (6-methyl-pyridin-3-ylmethyl)-amide], the IC50 (hP2X2/3H) is reported as 914 nM and the IC50 (hP2X3) is reported as 192 nM.
In the case of `Cc1ccc(-c2cc(C(=O)NCc3ccc(C)nc3)cc(-c3ccncc3)c2)cc1` [Compound 22, 4′-Methyl-5-pyridin-4-yl-biphenyl-3-carboxylic acid (6-methyl-pyridin-3-ylmethyl)-amide], the IC50 (hP2X2/3H) is reported as 143 nM and the IC50 (hP2X3) is reported as 191 nM.
In the case of `Cc1ccc(-c2cc(C(=O)NCc3ccc(C)nc3)cc(-c3cccc(N(C)C)c3)c2)cc1` [Compound 23, 3″-Dimethylamino-4-methyl-[1,1′;3′,1″]terphenyl-5′-carboxylic acid (6-methyl-pyridin-3-ylmethyl)-amide], the IC50 (hP2X2/3H) is reported as 4160 nM and the IC50 (hP2X3) is reported as 431 nM.
Molecule `Cc1ccc(-c2cc(C(=O)NCc3ccc(C)nc3)cc(-c3ccc(CO)cc3)c2)cc1` [Compound 26, 4″-Hydroxymethyl-4-methyl-[1,1′;3′,1″]terphenyl-5′-carboxylic acid (6-methyl-pyridin-3-ylmethyl)-amide] has an IC50 (hP2X2/3H) of 503 nM and an IC50 (hP2X3) of 309 nM.
Molecule `Cc1ccc(-c2cc(C(=O)NCc3ccc(C)nc3)cc(-c3ccccc3C#N)c2)cc1` [Compound 27, 2″-Cyano-4-methyl-[1,1′;3′,1″]terphenyl-5′-carboxylic acid (6-methyl-pyridin-3-ylmethyl)-amide] has an IC50 (hP2X2/3H) of 142 nM and an IC50 (hP2X3) of 195 nM.
Molecule `Cc1ccc(-c2cc(C(=O)NCc3ccc(C)nc3)cc(-c3ccccc3CN(C)C)c2)nc1` [Compound 28, 2′-Dimethylaminomethyl-5-(5-methyl-pyridin-2-yl)-biphenyl-3-carboxylic acid (6-methyl-pyridin-3-ylmethyl)-amide] has an IC50 (hP2X2/3H) of 83.5 nM and an IC50 (hP2X3) of 66 nM.
`Cc1ccc(-c2cc(C(=O)NCc3cnc(C)nc3)cc(-c3ccc(C)cn3)c2)nc1` [Compound 29, 3,5-Bis-(5-methyl-pyridin-2-yl)-N-(2-methyl-pyrimidin-5-ylmethyl)-benzamide] showed an IC50 (hP2X2/3H) of 219 nM and an IC50 (hP2X3) of 25.8 nM.
For `Cc1ccc(-c2cc(C(=O)N[C@H](C)c3cnc(C)nc3)cc(-c3ccccc3C#N)c2)nc1` [Compound 31, 2′-Cyano-5-(5-methyl-pyridin-2-yl)-biphenyl-3-carboxylic acid [(R)-1-(2-methyl-pyrimidin-5-yl)-ethyl]-amide], the IC50 (hP2X2/3H) was 17.6 nM and the IC50 (hP2X3) was 14.2 nM.
For `Cc1ccc(-c2cc(C(=O)NCc3ccc(C)nc3)cc(-c3ccccn3)c2)nc1` [Compound 32, 3-(5-Methyl-pyridin-2-yl)-N-(6-methyl-pyridin-3-ylmethyl)-5-pyridin-2-yl-benzamide], the IC50 (hP2X2/3H) was 997 nM and the IC50 (hP2X3) was 58 nM.
In the case of `Cc1ccc(-c2cc(C(=O)NCc3ccc(C)nc3)cc(-c3cccc(F)c3F)c2)nc1` [Compound 33, 2′,3′-Difluoro-5-(5-methyl-pyridin-2-yl)-biphenyl-3-carboxylic acid (6-methyl-pyridin-3-ylmethyl)-amide], the IC50 (hP2X2/3H) is reported as 98.7 nM and the IC50 (hP2X3) is reported as 122 nM.
`Cc1ccc(-c2cc(C(=O)N[C@H](C)c3cnc(C)nc3)cc(-c3ccccc3CO)c2)nc1` [Compound 34, 2′-Hydroxymethyl-5-(5-methyl-pyridin-2-yl)-biphenyl-3-carboxylic acid [(R)-1-(2-methyl-pyrimidin-5-yl)-ethyl]-amide] gave an IC50 (hP2X2/3H) of 18.4 nM and an IC50 (hP2X3) of 21.1 nM.
Work on `Cc1ccc(-c2cc(C(=O)NCc3ccc(C)nc3)cc(-c3ccc(C)cc3C#N)c2)nc1` [Compound 35, 2′-Cyano-4′-methyl-5-(5-methyl-pyridin-2-yl)-biphenyl-3-carboxylic acid (6-methyl-pyridin-3-ylmethyl)-amide] yielded an IC50 (hP2X2/3H) of 35.6 nM and an IC50 (hP2X3) of 50.8 nM.
`Cc1ccc(-c2cc(C(=O)N[C@H](C)c3cnc(C)nc3)cc(-c3cccc(F)c3F)c2)nc1` [Compound 36, 2′,3′-Difluoro-5-(5-methyl-pyridin-2-yl)-biphenyl-3-carboxylic acid [(R)-1-(2-methyl-pyrimidin-5-yl)-ethyl]-amide] gave an IC50 (hP2X2/3H) of 32.8 nM and an IC50 (hP2X3) of 65.4 nM.
`Cc1ccc(-c2cc(C(=O)NCc3ccc(C)nc3)cc(N3CCCCC3=O)c2)cc1` [Compound 37, 4′-Methyl-N-((6-methylpyridin-3-yl)methyl)-5-(2-oxopiperidin-1-yl)biphenyl-3-carboxamide] gave an IC50 (hP2X2/3H) of 122 nM and an IC50 (hP2X3) of 48.6 nM.
`Cc1ccc(-c2cc(C(=O)NCc3cnc(C)nc3)cc(N3CCCCC3=O)c2)cc1` [Compound 38] gave an IC50 (hP2X2/3H) of 226 nM and an IC50 (hP2X3) of 80.7 nM.
With `Cc1ccc(-c2cc(C(=O)N[C@H](C)c3cnc(C)nc3)cc(N3CCCCC3=O)c2)cc1` [Compound 39, (R)-4′-Methyl-N-(1-(2-methylpyrimidin-5-yl)ethyl)-5-(2-oxopiperidin-1-yl)biphenyl-3-carboxamide] the IC50 (hP2X2/3H) was 82 nM and the IC50 (hP2X3) was 38.8 nM.
`Cc1ccc(-c2cc(C(=O)N[C@H](C)c3ccc(C)nc3)cc(N3CCCCC3=O)c2)cc1` [Compound 40, (R)-4′-Methyl-N-(1-(6-methylpyridin-3-yl)ethyl)-5-(2-oxopiperidin-1-yl)biphenyl-3-carboxamide] was tested, and the IC50 (hP2X2/3H) was 52.7 nM and the IC50 (hP2X3) was 26.3 nM.
Molecule `Cc1ccc(-c2cc(C(=O)NCc3ccc(C)nc3)cc(-c3cnc(N)cn3)c2)nc1` [Compound 41, 3-(5-Amino-pyrazin-2-yl)-5-(5-methyl-pyridin-2-yl)-N-(6-methyl-pyridin-3-ylmethyl)-benzamide] has an IC50 (hP2X2/3H) of 169 nM and an IC50 (hP2X3) of 23.8 nM.
`Cc1ccc(-c2cc(C(=O)NCc3ccc(C)nc3)cc(-c3cccnc3C#N)c2)nc1` [Compound 42, 3-(2-Cyano-pyridin-3-yl)-5-(5-methyl-pyridin-2-yl)-N-(6-methyl-pyridin-3-ylmethyl)-benzamide] gave an IC50 (hP2X2/3H) of 50.5 nM and an IC50 (hP2X3) of 15.1 nM.
